From the NIST ThermoML archive (doi:10.1016/j.jct.2017.12.012)
± gives the expanded uncertainty stated by the source.

Legend:
[1] = 101.33 kPa, Liquid, Vibrating tube method
[2] = activity coefficient (dimensionless); of the first substance listed, at infinite dilution; xn = mol fraction of the nth substance listed; conditions: 101.33 kPa, Liquid, Chromatography, x1 = 0

SMILES	mass density ([1]; 313.15 K) [kg/m3]	mass density ([1]; 323.15 K) [kg/m3]	mass density ([1]; 333.15 K) [kg/m3]	mass density ([1]; 343.15 K) [kg/m3]	mass density ([1]; 353.15 K) [kg/m3]	activity coefficient ([2]; 313.15 K)	activity coefficient ([2]; 323.15 K)	activity coefficient ([2]; 333.15 K)	activity coefficient ([2]; 343.15 K)	activity coefficient ([2]; 353.15 K)
CCCCCCCCn1cc[n+](C)c1C.O=S(=O)([N-]S(=O)(=O)C(F)(F)F)C(F)(F)F	1296.1 ± 2.4	1287.4 ± 2.4	1278.6 ± 2.4	1269.1 ± 2.4	1258.2 ± 2.4					
Cc1ccccc1C [1,2-dimethylbenzene] + CCCCCCCCn1cc[n+](C)c1C.O=S(=O)([N-]S(=O)(=O)C(F)(F)F)C(F)(F)F						1.15 ± 0.12	1.08 ± 0.11	1.02 ± 0.1	0.96 ± 0.1	0.93 ± 0.09
Cc1cccc(C)c1 [1,3-dimethylbenzene] + CCCCCCCCn1cc[n+](C)c1C.O=S(=O)([N-]S(=O)(=O)C(F)(F)F)C(F)(F)F						1.18 ± 0.12	1.14 ± 0.12	1.1 ± 0.11	1.04 ± 0.11	1.01 ± 0.1
Cc1ccc(C)cc1 [1,4-dimethylbenzene] + CCCCCCCCn1cc[n+](C)c1C.O=S(=O)([N-]S(=O)(=O)C(F)(F)F)C(F)(F)F						1.17 ± 0.12	1.11 ± 0.11	1.06 ± 0.11	1 ± 0.1	0.95 ± 0.1
C1COCCO1 [1,4-dioxane] + CCCCCCCCn1cc[n+](C)c1C.O=S(=O)([N-]S(=O)(=O)C(F)(F)F)C(F)(F)F						0.64 ± 0.07	0.56 ± 0.06	0.51 ± 0.06	0.47 ± 0.05	0.42 ± 0.05
CC(C)CO [2-methyl-1-propanol] + CCCCCCCCn1cc[n+](C)c1C.O=S(=O)([N-]S(=O)(=O)C(F)(F)F)C(F)(F)F						2.21 ± 0.23	1.88 ± 0.2	1.6 ± 0.17	1.39 ± 0.14	1.21 ± 0.12
CC(C)CCO [3-methylbutan-1-ol] + CCCCCCCCn1cc[n+](C)c1C.O=S(=O)([N-]S(=O)(=O)C(F)(F)F)C(F)(F)F						2.46 ± 0.26	2.11 ± 0.22	1.79 ± 0.19	1.55 ± 0.16	1.32 ± 0.14
CC(C)=O [acetone] + CCCCCCCCn1cc[n+](C)c1C.O=S(=O)([N-]S(=O)(=O)C(F)(F)F)C(F)(F)F						0.46 ± 0.05	0.41 ± 0.05	0.37 ± 0.04	0.34 ± 0.04	0.31 ± 0.04
CC#N [acetonitrile] + CCCCCCCCn1cc[n+](C)c1C.O=S(=O)([N-]S(=O)(=O)C(F)(F)F)C(F)(F)F						0.51 ± 0.06	0.45 ± 0.05	0.4 ± 0.05	0.37 ± 0.04	0.34 ± 0.04
c1ccccc1 [benzene] + CCCCCCCCn1cc[n+](C)c1C.O=S(=O)([N-]S(=O)(=O)C(F)(F)F)C(F)(F)F						0.81 ± 0.08	0.74 ± 0.08	0.68 ± 0.07	0.63 ± 0.07	0.59 ± 0.06
CCCCO [butan-1-ol] + CCCCCCCCn1cc[n+](C)c1C.O=S(=O)([N-]S(=O)(=O)C(F)(F)F)C(F)(F)F						2.31 ± 0.24	1.96 ± 0.21	1.7 ± 0.18	1.46 ± 0.15	1.27 ± 0.13
CCC(C)O (stereo not given) [butan-2-ol] + CCCCCCCCn1cc[n+](C)c1C.O=S(=O)([N-]S(=O)(=O)C(F)(F)F)C(F)(F)F						2.03 ± 0.21	1.74 ± 0.18	1.5 ± 0.16	1.29 ± 0.13	1.11 ± 0.11
C1CCCCC1 [cyclohexane] + CCCCCCCCn1cc[n+](C)c1C.O=S(=O)([N-]S(=O)(=O)C(F)(F)F)C(F)(F)F						4.76 ± 0.5	4.16 ± 0.44	3.75 ± 0.39	3.37 ± 0.35	3.12 ± 0.33
C1=CCCCC1 [cyclohexene] + CCCCCCCCn1cc[n+](C)c1C.O=S(=O)([N-]S(=O)(=O)C(F)(F)F)C(F)(F)F						3.04 ± 0.32	2.77 ± 0.29	2.5 ± 0.26	2.28 ± 0.24	2.1 ± 0.22
CCCCCCCCCC [decane] + CCCCCCCCn1cc[n+](C)c1C.O=S(=O)([N-]S(=O)(=O)C(F)(F)F)C(F)(F)F						20.8 ± 2.2	16.4 ± 1.7	13.5 ± 1.4	11.2 ± 1.2	9.33 ± 0.98
ClCCl [dichloromethane] + CCCCCCCCn1cc[n+](C)c1C.O=S(=O)([N-]S(=O)(=O)C(F)(F)F)C(F)(F)F						0.82 ± 0.08	0.75 ± 0.08	0.68 ± 0.07	0.64 ± 0.07	0.58 ± 0.06
CCO [ethanol] + CCCCCCCCn1cc[n+](C)c1C.O=S(=O)([N-]S(=O)(=O)C(F)(F)F)C(F)(F)F						1.7 ± 0.18	1.49 ± 0.15	1.31 ± 0.13	1.15 ± 0.12	1.01 ± 0.1

SMILES	mass density ([1]; 313.15 K) [kg/m3]	mass density ([1]; 323.15 K) [kg/m3]	mass density ([1]; 333.15 K) [kg/m3]	mass density ([1]; 343.15 K) [kg/m3]	mass density ([1]; 353.15 K) [kg/m3]	activity coefficient ([2]; 313.15 K)	activity coefficient ([2]; 323.15 K)	activity coefficient ([2]; 333.15 K)	activity coefficient ([2]; 343.15 K)	activity coefficient ([2]; 353.15 K)
CCOC(C)=O [ethyl acetate] + CCCCCCCCn1cc[n+](C)c1C.O=S(=O)([N-]S(=O)(=O)C(F)(F)F)C(F)(F)F						0.74 ± 0.08	0.67 ± 0.07	0.61 ± 0.07	0.57 ± 0.06	0.52 ± 0.06
CCc1ccccc1 [ethylbenzene] + CCCCCCCCn1cc[n+](C)c1C.O=S(=O)([N-]S(=O)(=O)C(F)(F)F)C(F)(F)F						1.37 ± 0.14	1.29 ± 0.13	1.2 ± 0.12	1.14 ± 0.12	1.08 ± 0.11
CCCCCCC [heptane] + CCCCCCCCn1cc[n+](C)c1C.O=S(=O)([N-]S(=O)(=O)C(F)(F)F)C(F)(F)F						8.82 ± 0.93	7.77 ± 0.82	6.89 ± 0.72	6.29 ± 0.66	5.69 ± 0.6
C=CCCCC [hex-1-ene] + CCCCCCCCn1cc[n+](C)c1C.O=S(=O)([N-]S(=O)(=O)C(F)(F)F)C(F)(F)F						4.99 ± 0.52	4.26 ± 0.45	3.65 ± 0.38	3.18 ± 0.33	2.81 ± 0.3
CCCCCC [hexane] + CCCCCCCCn1cc[n+](C)c1C.O=S(=O)([N-]S(=O)(=O)C(F)(F)F)C(F)(F)F						7.89 ± 0.83	6.52 ± 0.69	5.57 ± 0.59	4.87 ± 0.51	4.22 ± 0.44
CO [methanol] + CCCCCCCCn1cc[n+](C)c1C.O=S(=O)([N-]S(=O)(=O)C(F)(F)F)C(F)(F)F						1.37 ± 0.14	1.26 ± 0.13	1.14 ± 0.12	1.05 ± 0.11	0.96 ± 0.1
CC1CCCCC1 [methylcyclohexane] + CCCCCCCCn1cc[n+](C)c1C.O=S(=O)([N-]S(=O)(=O)C(F)(F)F)C(F)(F)F						5.67 ± 0.6	4.88 ± 0.51	4.25 ± 0.45	3.79 ± 0.4	3.32 ± 0.35
CCCCCCCCC [nonane] + CCCCCCCCn1cc[n+](C)c1C.O=S(=O)([N-]S(=O)(=O)C(F)(F)F)C(F)(F)F						14.4 ± 1.5	12.1 ± 1.3	10.4 ± 1.1	9.04 ± 0.95	8.04 ± 0.85
CCCCCCCC [octane] + CCCCCCCCn1cc[n+](C)c1C.O=S(=O)([N-]S(=O)(=O)C(F)(F)F)C(F)(F)F						11.1 ± 1.2	9.5 ± 1	8.12 ± 0.85	7.17 ± 0.75	6.32 ± 0.66
CCCCCO [pentan-1-ol] + CCCCCCCCn1cc[n+](C)c1C.O=S(=O)([N-]S(=O)(=O)C(F)(F)F)C(F)(F)F						2.61 ± 0.27	2.22 ± 0.23	1.92 ± 0.2	1.62 ± 0.17	1.41 ± 0.15
CCCCC [pentane] + CCCCCCCCn1cc[n+](C)c1C.O=S(=O)([N-]S(=O)(=O)C(F)(F)F)C(F)(F)F						6.78 ± 0.71	5.63 ± 0.59	4.81 ± 0.51	4.24 ± 0.45	3.66 ± 0.38
CCCO [propan-1-ol] + CCCCCCCCn1cc[n+](C)c1C.O=S(=O)([N-]S(=O)(=O)C(F)(F)F)C(F)(F)F						1.94 ± 0.2	1.67 ± 0.17	1.42 ± 0.15	1.22 ± 0.13	1.05 ± 0.11
CC(C)O [propan-2-ol] + CCCCCCCCn1cc[n+](C)c1C.O=S(=O)([N-]S(=O)(=O)C(F)(F)F)C(F)(F)F						2.13 ± 0.22	1.82 ± 0.19	1.56 ± 0.16	1.34 ± 0.14	1.17 ± 0.12
ClC(Cl)(Cl)Cl [tetrachloromethane] + CCCCCCCCn1cc[n+](C)c1C.O=S(=O)([N-]S(=O)(=O)C(F)(F)F)C(F)(F)F						1.77 ± 0.18	1.67 ± 0.17	1.57 ± 0.16	1.46 ± 0.15	1.39 ± 0.14
C1CCOC1 [tetrahydrofuran] + CCCCCCCCn1cc[n+](C)c1C.O=S(=O)([N-]S(=O)(=O)C(F)(F)F)C(F)(F)F						0.54 ± 0.06	0.48 ± 0.05	0.44 ± 0.05	0.4 ± 0.05	0.37 ± 0.04
Cc1ccccc1 [toluene] + CCCCCCCCn1cc[n+](C)c1C.O=S(=O)([N-]S(=O)(=O)C(F)(F)F)C(F)(F)F						1.03 ± 0.1	0.94 ± 0.1	0.87 ± 0.09	0.82 ± 0.08	0.78 ± 0.08
ClC(Cl)Cl [trichloromethane] + CCCCCCCCn1cc[n+](C)c1C.O=S(=O)([N-]S(=O)(=O)C(F)(F)F)C(F)(F)F						0.77 ± 0.08	0.7 ± 0.07	0.65 ± 0.07	0.6 ± 0.06	0.54 ± 0.06
